Where only a bound is given, the exact number is not on record here.

Here are results for 17 compounds from PMC12391934, “Palladium-Catalyzed C–H Arylation of Quinoidal Scaffolds Through Homogeneous and Heterogeneous Pathways: Advancing Toward Trypanocidal Prototypes” (ACS Omega, 2025).

Common to all, as to format: cell-based
For series [1], the system named is trypomastigote forms of Trypanosoma cruzi (Y strain). Nature of the series: Trypanocidal assay, bloodstream trypomastigotes, 5% of blood at 4 °C. Conditions: 24 h, concentration giving 50% lysis of the parasites, mean ± SD of at least three experiments. On the procedure: 5% of blood at 4 °C: For all the experiments, stock solutions of the compounds were prepared in dimethyl sulfoxide, with the final concentration of the solvent never exceeding 0.5%, concentration known to exert no toxicity to the parasite or host cells. Bloodstream trypomastigotes of Y strain were obtained from infected Swiss Webster mice at the peak of parasitemia by differential centrifugation process. The parasites (5 × 10^6 parasites per mL) plus 5% of blood were incubated at 4 °C for 24 h in 5% CO2 atmosphere in absence or presence of the compounds. […] At least three independent experiments were performed, and the mean and standard deviation were calculated. The standard drug Bz was used as control.

The next series in a line: in vitro.
The subject of series [2] is trypomastigote forms of Trypanosoma cruzi (Y strain). The experiment in a line: Trypanocidal assay, bloodstream trypomastigotes, 0% of blood at 37 °C. Conditions: 24 h, concentration giving 50% lysis of the parasites, mean ± SD of at least three experiments. How it is done:
0% of blood at 37 °C: The experiments were performed with the Y strain of T. cruzi.^11 Stock solutions of the compounds were prepared in dimethylsulfoxide (DMSO), with the final concentration of the latter in the experiments never exceeding 0.1%. […] Bloodstream trypomastigotes were obtained from infected Albino Swiss mice at the peak of parasitemia by differential centrifugation. The parasites were resuspended to a concentration of 10 × 10^6 cells/mL in DMES medium. This suspension (100 µL) was added to the same volume of each of the compounds, which had been previously prepared at twice the desired final concentrations. The incubation was performed in 96-well microplates (Nunc Inc., Rochester, USA) at 37 °C for 24 h. Benznidazole (Lafepe, Brazil), the standard drug for treatment of chagasic patients, was used as control.

`Cc1ccc(C2=CC(=O)c3ccccc3C2=O)cc1` [3a] displayed an IC50 in series [1] of 36.3 ± 2.9 µM. In “in vitro”, this compound showed a CC50 at 24 h of 24.6 ± 3.2 µM.

In series [1], `Cc1cccc(C2=CC(=O)c3ccccc3C2=O)c1` [3b] displayed an IC50 of 38.4 ± 1.3 µM. Half-maximal cytotoxicity in “in vitro” (CC50 at 24 h) was put at 14.3 ± 0.5 µM. `Cc1cc(C)cc(C2=CC(=O)c3ccccc3C2=O)c1` [3c] showed an IC50 in series [1] of 219 ± 13.4 µM. With `O=C1C=C(c2ccccc2)C(=O)c2ccccc21` [3d], the IC50 in series [1] turned out to be 25.2 ± 2.8 µM; in series [2], 2.11 ± 0.1 µM. In addition, in “in vitro”, the CC50 at 24 h turned out to be 9.4 ± 2.2 µM.

In series [1], `COc1ccc(C2=CC(=O)c3ccccc3C2=O)cc1` [3e] registered an IC50 of 47.6 ± 0.6 µM. In the series “in vitro”, this compound showed a CC50 at 24 h of 34 ± 0.5 µM.

As for `COc1cccc(C2=CC(=O)c3ccccc3C2=O)c1` [3f], the results for the IC50 in series [1] and in series [2] were 30.7 ± 2.5 µM and 3.85 ± 0.01 µM, respectively. Besides, the CC50 at 24 h in the series “in vitro” stood at 8.3 ± 1.3 µM.

Take `O=C1C=C(c2ccc(C(F)(F)F)cc2)C(=O)c2ccccc21` [3g]: in series [1], the IC50 was found to be 30.6 ± 2.1 µM. The compound further registered a CC50 at 24 h in “in vitro” of 6.8 ± 0.2 µM. In turn, `COC(=O)c1ccc(C2=CC(=O)c3ccccc3C2=O)cc1` [3h] returned an IC50 in series [1] of 45.9 ± 4.3 µM. Moreover, the CC50 at 24 h in “in vitro” came out at 30.6 ± 1 µM. As to `Cc1cc([N+](=O)[O-])ccc1C1=CC(=O)c2ccccc2C1=O` [3i], the half-inhibitory concentration (IC50) in series [1] is 39.5 ± 4.1 µM. The same compound registered a CC50 at 24 h in the series “in vitro” of 6.8 ± 0.6 µM.

For the compound `COc1ccc(C2=CC(=O)c3ccccc3C2=O)c([N+](=O)[O-])c1` [3j], half-maximal inhibition in series [1] (IC50) was put at 86.1 ± 7.2 µM. Same read-out and setting: with `COc1cc2c(cc1OC)C(=O)C(c1ccc(C)cc1)=CC2=O` [3k] the figure was 83.3 ± 4.8 µM. As for `Cc1ccc(C2=CC(=O)c3c(O)cccc3C2=O)cc1` [3l], the figures for the IC50 in series [1] and in series [2] were 14.4 ± 2.1 µM and 0.31 ± 0.04 µM, respectively. The compound also registered a CC50 at 24 h in “in vitro” of 4.8 ± 0.9 µM. `O=C1C(c2ccccc2)=CC(=O)c2c(O)cccc21` [3m]: the IC50 in series [1] stood at 12.7 ± 0.1 µM; in series [2] it was 0.34 ± 0.03 µM. Also, the CC50 at 24 h in “in vitro” was less than 3.9 µM. For `O=C1C=C(c2ccccc2)C(=O)c2c(O)cccc21` [3n], in that order: 13.7 ± 1.1 µM, 0.69 ± 0.03 µM and 6.4 ± 0.5 µM. `Cc1cc(C)cc(C2=CC(=O)c3cc4ccccc4cc3C2=O)c1` [3p]: the IC50 in series [1] is more than 250 µM. Same read-out and setting: next, `O=C1C=C(c2ccccc2)C(=O)c2cc3ccccc3cc21` [3q]: more than 250 µM; `Cc1ccc(C2=CC(=O)C=C(c3ccc(C)cc3)C2=O)cc1` [3v]: 233 ± 12.4 µM.

As usually defined, the IC50 is the concentration needed to halve the response being measured. In general, CC50 refers to the concentration giving 50% cytotoxicity. A lower CC50 goes with harm at low concentration.
